The values below come from publication PMC10821025, “Bioprospection of Tenellins Produced by the Entomopathogenic Fungus Beauveria neobassiana” (Journal of Fungi, 2024).

≈ marks a conversion by molar mass, not a printed value. Bounds are passed on as bounds.

Assay [1] deals with mouse fibroblasts (L-929). Put plainly: Cytotoxicity assay, L929. The note with it: L929 (fibroblast), 5 days of incubation. It is filed as cell-based. The protocol: (§1) The cytotoxicity of isolated compounds was determined as previously described over a concentration range between […] against two mammalian cell lines: mouse fibroblasts (L-929) and human endocervical adenocarcinoma (KB-3.1). […] Following 5 days of incubation, we determined the minimum concentration of the tested compounds required to achieve 50% growth inhibition, expressed as IC50 values.

In assay [2] the test system is human endocervical adenocarcinoma (KB-3.1). The assay can be described thus: Cytotoxicity assay, KB3.1. Format: cell-based. Conditions: KB3.1 (endocervical adenocarcinoma), 5 days of incubation. The protocol: as §1
Assay [3] concerns Acinetobacter baumanii [DSM 30008]. Put plainly: Serial dilution assay (MIC). It is filed as cell-based. Conditions: Acinetobacter baumannii, DSM30008. The procedure:
(§2) All isolated compounds were assessed for their antimicrobial activity using a serial dilution assay over a concentration range from 67 to 0.5 µg/mL following the previously described protocols. In brief, the antimicrobial activity of all isolated metabolites was assessed by determining their minimum inhibitory concentration (MIC) against a range of different pathogens, including five fungal species: Candida albicans [DSM 1665], Mucor hiemalis [DSM 2656], Schizosaccharomyces pombe [DSM 70572], Rhodotorula glutinis [DSM 10134], and Wickerhamomyces anomalus [DSM 6766], as well as various Gram-positive: Staphylococcus aureus [DSM 346], Bacillus subtilis [DSM 10], Mycolicibacterium smegmatis [ATCC 700084], and Gram-negative bacteria: Acinetobacter baumanii [DSM 30008], Escherichia coli [DSM 1116], Chromobacterium violaceum [DSM 30191], and Pseudomonas aeruginosa [PA14]. In our experiments, gentamicin served as the positive control against most bacteria, while nystatin acted as the positive control against all fungi. For specific microorganisms, namely A. baumannii, B. subtilis, and M. smegmatis, ciprofloxacin, oxytetracycline, and kanamycin were used as positive controls, respectively.

Assay [4] relates to Bacillus subtilis [DSM 10]. Put plainly: Serial dilution assay (MIC). Format: cell-based. The note with it: DSM10, read-out: MIC. The protocol:
as §2

For assay [5], the system named is Candida albicans [DSM 1665]. The assay can be described thus: Serial dilution assay (MIC). It is filed as cell-based. The note with it: DSM1665, read-out: MIC. The protocol:
as §2

The test system of assay [6] is Chromobacterium violaceum [DSM 30191]. The assay can be described thus: Serial dilution assay (MIC). The note with it: DSM30191, read-out: MIC. It is filed as cell-based. The protocol: as §2
The subject of assay [7] is Escherichia coli [DSM 1116]. The assay can be described thus: Serial dilution assay (MIC). It is filed as cell-based. The note with it: DSM1116, read-out: MIC. The protocol: as §2
The test system of assay [8] is Mucor hiemalis [DSM 2656]. The assay can be described thus: Serial dilution assay (MIC). Format: cell-based. The note with it: DSM2656, read-out: MIC. The protocol: as §2
The test system of assay [9] is Mycolicibacterium smegmatis [ATCC 700084]. Put plainly: Serial dilution assay (MIC). Format: cell-based. The note with it: Mycolicibacterium smegmatis, ATCC700084; Mycobacterium smegmatis; read-out: MIC. The procedure:
as §2

The test system of assay [10] is Pseudomonas aeruginosa [PA14]. Put plainly: Serial dilution assay (MIC). The note with it: read-out: MIC. It is filed as cell-based. The protocol:
as §2

Assay [11] concerns Rhodotorula glutinis [DSM 10134]. Put plainly: Serial dilution assay (MIC). Format: cell-based. The note with it: DSM10134. The procedure:
as §2

The subject of assay [12] is Schizosaccharomyces pombe [DSM 70572]. The assay can be described thus: Serial dilution assay (MIC). The note with it: DSM70572. Format: cell-based. The procedure:
as §2

The subject of assay [13] is Staphylococcus aureus [DSM 346]. Put plainly: Serial dilution assay (MIC). Format: cell-based. Conditions: DSM346, read-out: MIC. The procedure: as §2
The subject of assay [14] is Wickerhamomyces anomalus [DSM 6766]. Put plainly: Serial dilution assay (MIC). Format: cell-based. Conditions: Hansenula anomala, DSM6766. The protocol:
as §2

For assay [15], the system named is S. aureus (DSM 1104) biofilm formation. The assay can be described thus: Biofilm inhibition assay (Crystal Violet staining). It is filed as cell-based, Staphylococcus aureus. Conditions: for inhibitory activity on S. aureus biofilm formation (in words): 125–7.8 µg/mL; for Biofilm inhibition (% ± SD): S. aureus (DSM 1104); for Biofilm inhibition (% ± SD) / inhibition at 7.8 µg/mL: 7.8 µg/ml; for inhibition at 7.8 µg/mL / inhibition at 15.62 µg/mL / inhibition at 31.25 µg/mL / inhibition at 62.5 µg/mL / inhibition at 125 µg/mL: Staphylococcus aureus, DSM1104, S. aureus (DSM 1104), read-out: Biofilm inhibition (% ± SD). The protocol: The compounds were evaluated for their ability to inhibit S. aureus (DSM 1104) biofilm formation, following the established procedure. Briefly, serially diluted compounds (125–7.8 µg/mL) were co-incubated with S. aureus in 96-well plates in CASO medium supplemented with 4% of glucose (see Supplementary Materials). Biofilm inhibition was assessed by using Crystal Violet staining after […], with microporenic acid A serving as a positive control and methanol as solvent control.
Biofilm inhibition assays were condu cted acco rding to th e methodolo g y previousl y described (Soliga et al., 2021), targeting the inhibition of biofilm formation in Staphylococcus aureus […]
S. aureus were cultured i n LB and CASO medium at 37 °C for 18 h, respect ivel y, in a shaker at 120 rpm after being thawed from a -20 °C stock solution. The culture's optical densit y at 600 nm (OD600) was measured and adjusted to a 0.1 McFarland standard in M63 minimal medium supplemented with necessar y nutrients and CASO medi um with 4% glucose for S. aureus, respectively. Microtiter plates were loaded with 150 µL of the bacterial suspension containing s eriall y diluted test compounds (7.8 -125 µg/m L) and incubated for 24 h at 37 °C. The evaluation of biofilm inhibition was performed by staining the biofilm with 0.1% cr ystal violet (CV). After staining, the plates were washed, and the biofilm dissolved in 95% ethanol. The absorbance of the dissolved biofilm was measured at 530 nm using a plat e reader. Negative control involved methanol (2.5%) while microporenic acid A at a concentration range of 7.8 to 125 µg/mL were used as the positive control for S. aureus (Chepkirui et al., 2018). All experiments were performed three times, and the standard deviation (SD) was maintained at or below 15% for S. aureus .
Differences between sam ples and the control grou p were determined b y a t wo-tailed Student’s t-test. Statistical significan ce was defined as p < 0.01. Anal ysis was carri ed out using GraphPad Prism 9® (GraphPad Software, San Diego, CA, USA). […]

For assay [16], the system named is lung cancer (A-549) cell line. The assay can be described thus: Cytotoxicity assay, A549. It is filed as cell-based. The note with it: Homo sapiens, 120 h; A549 (lung), 5 days of incubation; read-out: IC50.
In assay [17] the test system is breast cancer (MCF-7) cell line. The assay can be described thus: Cytotoxicity assay, MCF-7. Format: cell-based. The note with it: Homo sapiens, MCF7, 120 h; MCF-7 (breast), 5 days of incubation; read-out: IC50.
A further assay relates to S. aureus. The arrangement: method as in doi:10.1016/j.phytol.2021.03.003. The note with it: cited from earlier work.
Another assay deals with Curvularia lunata. More on the design: method as in doi:10.1016/j.phytol.2021.03.003. Conditions: cited from earlier work.

For orientation: IC50 means the concentration that inhibits the measured activity by half. The term MIC denotes the least concentration at which growth counts as inhibited. A word on the inhibition: it is the percentage by which the read-out fell short of the control. `CCC(C)/C=C(C)/C=C/C(=O)C1=C(O)[C@H]([C@H](O)c2ccc(O)cc2)NC1=O` (stereo partly shown) [Compound 2, Prototenellin D]: the “IC50 (µM)” value in [1] and in [2] was “weak or no activity” each time. Moreover, the concentration for half-maximal inhibition (IC50) in [1] (Mus musculus, L929, 120 h) stood at 70.1 µM; in assay [2] (Homo sapiens, KB 3-1, 120 h), 64.7 µM. The MIC in [3], in assay [4], in [5], in [6], in [7] and in [8] was above 67 µg/mL each time. The minimum inhibitory concentration (MIC) in assay [9], in [10], in [11], in assay [12], in assay [13] and in [14] was above 67 µg/mL throughout. In [15], the “inhibitory activity on S. aureus biofilm formation (in words)” value is “promising activities in a dose-dependent manner”. The “Biofilm inhibition (% ± SD)” value in assay [15] (listed as prototenellin D (2)) is “more than 50%”. In addition, the inhibition at 7.8 µg/mL in assay [15] worked out at 53 ± 7%. For the same molecule, in assay [15], the inhibition at 15.62 µg/mL worked out at 56 ± 8%. In addition, in assay [15], the inhibition at 31.25 µg/mL turned out to be 80 ± 10%. Moreover, the inhibition at 62.5 µg/mL in [15] worked out at 83 ± 9%. The inhibition at 125 µg/mL in [15] is 84 ± 17%.

Consider `CCC(C)/C=C(C)/C=C/C(=O)c1c(O)c(-c2ccc(O)cc2)cn(O)c1=O` (stereo not shown) [Compound 4, Tenellin], for which the IC50 in assay [1] (Mus musculus, L929, 120 h) was 0.79 µM; in assay [2] (Homo sapiens, KB 3-1, 120 h) it was 0.79 µM; in assay [16], 0.24 µM; in assay [17] it was 2 µM. Besides, the minimum inhibitory concentration (MIC) in assay [3] was above 67 µg/mL; in assay [4] it was 8.3 µg/mL (≈ 22.5 µM); in assay [5] it was 66.6 µg/mL (≈ 180 µM); in assay [6] it was above 67 µg/mL; in assay [7], above 67 µg/mL; in [8], 66.6 µg/mL (≈ 180 µM). The MIC is above 67 µg/mL in [9]; above 67 µg/mL in [10]; above 67 µg/mL in assay [11]; above 67 µg/mL in assay [12]; 16.6 µg/mL (≈ 44.9 µM) in [13]; above 67 µg/mL in assay [14]. The minimum inhibitory concentration (MIC) is listed as 6.25 µg/mL (≈ 16.9 µM) in the assay on S. aureus and 3.13 µg/mL (≈ 8.47 µM) in the assay with Curvularia lunata. Further, the “inhibitory activity on S. aureus biofilm formation (in words)” value in assay [15] is on record as “promising activities in a dose-dependent manner”. In addition, the “Biofilm inhibition (% ± SD)” value in [15] (listed as tenellin (4)) was “ca. 30%”. In addition, in assay [15], the inhibition at 7.8 µg/mL was determined as 36 ± 13%. Also, the inhibition at 15.62 µg/mL in [15] is 51 ± 19%. For the same molecule, the inhibition at 31.25 µg/mL in assay [15] was 73 ± 15%. Besides, the inhibition at 62.5 µg/mL in assay [15] came to 80 ± 4%. Moreover, the inhibition at 125 µg/mL in assay [15] stood at 78 ± 5%.

As for `CCC(/C=C(C)/C=C/C(=O)c1c(O)c(-c2ccc(O)cc2)cn(O)c1=O)CO` (stereo not shown) [Compound 5, 15-Hydroxytenellin], the IC50 is 6.8 µM in [1]; 4.9 to 6.8 µM in assay [1] (Mus musculus, L929, 120 h); 4.9 to 6.8 µM in assay [2] (Homo sapiens, KB 3-1, 120 h); 6 µM in [2]; 2.6 µM in [16]; 8.1 µM in assay [17]. The MIC in assay [3] is above 67 µg/mL; in [4], 66.6 µg/mL (≈ 173 µM); in [5] it was above 67 µg/mL; in assay [6], above 67 µg/mL; in [7] it was above 67 µg/mL; in assay [8], above 67 µg/mL. For the same molecule, the MIC is above 67 µg/mL in assay [9]; above 67 µg/mL in assay [10]; above 67 µg/mL in assay [11]; above 67 µg/mL in assay [12]; 66.6 µg/mL (≈ 173 µM) in assay [13]; above 67 µg/mL in [14]. In assay [15], the inhibition at 15.62 µg/mL was found to be 47 ± 12%. For the same molecule, the inhibition at 31.25 µg/mL in assay [15] came out at 78 ± 5%. Also, the inhibition at 62.5 µg/mL in assay [15] is 85 ± 2%. Further, the inhibition at 125 µg/mL in [15] stood at 86 ± 1%.
